Values of other authors as cited in patent publication US20080214592A1, “METHODS OF TREATING ANXIETY DISORDERS” (Orexigen Therapeutics, Inc., priority 2005, published 2008).

- physiological half life: about 24 hours
Compound: CNCCC(Oc1ccc(C(F)(F)F)cc1)c1ccccc1 (stereo not shown) [Fluoxetine, fluoxetine]
